According to US9084779B2, “Conjugates of nitroimidazoles and their use as chemotherapeutic agents” (The Johns Hopkins University, priority 2011, dated 2015):
Converted amounts (≈) assume the structure as drawn.

Columns and labels:
[1] = test system: Hep3B human hepatocellular carcinoma cells; experiment: MTS tetrazolium cell proliferation assay, 72-h exposure; assay type: cell-based; settings: normoxic (21% O2), read-out: IC50 Normoxic (N)
Excerpt: Anti-proliferative assay. The human hepatocellular carcinoma cell line Hep3B was purchased from American Type culture Collection (ATCC, Manassas, Va.). Dulbecco's Modified Eagle Medium (DMEM) and penicillin/streptomycin (P/S) were obtained from GIBCO Invitrogen. Fetal Bovine serum (FBS) was obtained from Thermo Scientific Hyclone. Dimethyl sulfoxide (DMSO-Hybri-Max) was purchased from Sigma-Aldrich Co. and the CellTiter 96 AQueous One Solution Cell Proliferation Assay (MTS) was acquired from Promega Corp. Hep3B cells were maintained in DMEM supplemented with 10% FBS and 1× P/S solution. Cultures were incubated at 37° C. in a 5% CO2 atmosphere with 99% humidity. Stock solutions of test compounds were prepared in DMSO for use in the cell culture viability assays.
MTS tetrazolium cell proliferation assay. The viability of Hep3B cells exposed to the synthesized compounds was determined by the MTS assay. Briefly, Hep3B cells were plated in 96-well plates at a density of 3.0×10^3 cells/well and incubated for 24-h before treatment. At the initiation of treatment, the growth media was replaced with 200 μL of media containing increasing concentrations of the test compounds in triplicate wells. The final DMSO concentration in the media was 1.0% including the media added to the control wells minus the test compound. After a 72-hour incubation, 40 μL of MTS solution was added to each well and the plates were incubated for an additional 3.0 hours. The plates were then read at 490 nm on a Biotek Instruments PowerWave 200 microplate reader. For each experiment the percent growth inhibition relative to the control (no drug addition) was calculated and a dose inhibition curve was generated. The concentration of drug required to inhibit cell growth by 50% (IC50) compared to the control cells was then determined by non-linear regression using PSI-Plot software (Poly Software International).
Antiproliferative activity. The anti-cancer activities of the parent compounds 3 and 8 and the conjugated compounds 7a-d and 10a-d were tested against Hep3B human hepatocellular carcinoma cells in culture.

[2] = Determination of water solubility by UV absorbance of a saturated solution; assay type: physicochemical; settings: for Increment (solubility): PEG tether compound in comparison with the —CH2CH2— tether compound of the same pair (7c/7a, 7d/7b, 10c/10a, 10d/10b); for solubility at 1 h: thermodynamic from solid, water, saturated solution, sonicated at 25° C., stirred at room temperature 1.0 h, filtered
Experimental: The aqueous solubility of all eight compounds was assessed by using a technique involving measurement of their UV absorbance^29.
Determination of Water Solubility of Compounds 7a-d and 10a-d. A saturated solution was prepared by addition of a test compound (7a-d and 10a-d; ca. 1.00 mg) to water (1.00 mL), which was sonicated at 25° C. for 5.0 min and stirring at room temperature for an additional 1.0 h. After filtration with Millipore filters (0.45-μm-pore-size polyvinylidene fluoride), the supernatant was analyzed by UV spectroscopy with concentration determined from absorbance, standardized against calibration data. Standard curves for each compound were obtained by plotting absorbance against concentration. The concentration range of the standard solutions was 1.0-10 μg/mL. For all standards, their curves were linear with γ>0.996.

[3] = test system: Hep3B human hepatocellular carcinoma cells; experiment: Hypoxia targeting assay, 5-h exposure then 5 days growth, MTS; assay type: cell-based; settings: for Ratio IC50 (N)/IC50 (H): normoxic versus hypoxic
Experimental: Hypoxia targeting assay. Hep3B cells, plated in 96-well plates at a density of 3.0×10^3 cells/well, were incubated overnight and then treated with the test compounds for 5.0 hours at under hypoxic (1% O2) or normoxic (21% O2) conditions. Exposure of cells to hypoxia was carried out in a PROOX C-Chamber with O2 and CO2 levels modulated by a PROOX Model C21 Controller (BioSpherix). At the end of the treatment period, the wells were washed with phosphate buffered saline (PBS) and fresh compound-free media was added. The cells were cultured for an additional 5 days under normoxic conditions and then assayed for cell proliferation using the MTS assay.
Hypoxia targeting. Nitroimidazoles are converted to reactive compounds in hypoxic cells. Therefore it is of importance to compare the antiproliferative activities of the nitroimidazole conjugated compounds against Hep3B cells under normoxic and hypoxic conditions. In these experiments, Hep3B cells in culture were treated with each of the conjugated compounds 7c-d, 10c-d, or the parent compounds 3 or 8 for a 5.0-hour period under normoxic (21% O2) or hypoxic (1.0% O2) conditions. After treatment, the cells were returned to normal conditions and assayed for proliferation after 5 days of additional growth. […] The ratio between the IC50 values for each drug under normoxic versus hypoxic culture conditions was computed and used as a measure of the relative increase in potency.

[4] = test system: subcutaneous LNCaP prostate cancer cell explants; experiment: Immunofluorescence analysis of 2-nitroimidazole induced protein adducts in mouse tumor explants; assay type: in vivo, nude mice; settings: daily intravenous tail vein injection for three weeks
Experimental: Immunofluorescence analysis of 2-nitroimidazole induced protein adducts in mouse tumor explants. Nude mice with subcutaneous LNCaP prostate cancer cell explants were administered Hydroxyprobe-1, M3N or M3N-PEG-2NI for three weeks by daily intravenous tail vein injection with an additional injection 3 hours prior to euthanization. Tumors were removed from the euthanized mice by dissection and incubated in 30% sucrose/PBS overnight at 4° C. Excess sucrose was removed and the tissue was incubated in 30% sucrose/PBS:OCT (1:1) for 1 hour at room temperature. Afterward the tissue was frozen in 100% OCT. Frozen sections of […] were prepared and fixed in 4% PFA/PBS for 1 hour at room temperature. The sections were blocked overnight at 4° C. with 5% goat serum/PBS or at room temperature for 1 hour and then incubated with Hydroxyprobe-1 rabbit antiserum (1:200) overnight at 4° C. After three washes with PBS, the secondary antibody, mouse anti rabbit-FITC (1:1000) was added for 1 hour at room temperature. The sections were mounted using Vectashield and fluorescently imaged.

[5] = test system: LNCaP human prostate cancer cells; experiment: Western blot analysis of 2-nitroimidazole induced protein adducts in cell culture; assay type: cell-based; settings: 80 μM, 6 hours normoxic then 6 hours hypoxic or normoxic
Experimental: Western blot analysis of 2-nitroimidazole induced protein adducts in LNCaP cell cultures. Exponentially growing LNCaP human prostate cancer cells were treated with DMSO, 80 μM M3N-PEG-2NI or Hypoxyprobe-1 in standard media for 6 hours under normoxic conditions and then under hypoxic or normoxic conditions for additional 6 hours. Afterward the media was aspirated, the cells washed and ice cold RIPA lysis buffer was added and the cells lysed on ice for 15 minutes. The samples were centrifuged and the lysate collected. Cellular proteins in the extracts were analyzed for the presence of protein adducts using standard western blotting technique. The primary antibody was PAb2627 polyclonal antibody (1:200) directed against Hydroxyprobe-1 protein adducts. The secondary antibody was Anti-Rabbit HRP conjugate (1:2000). Detection was by chemiluminescence

[6] = test system: 786-0 human renal adenocarcinoma cells; experiment: MTT cell viability assay, 3 days; assay type: cell-based; settings: normoxic conditions, 1% DMSO
Experimental: (§1) Additional cell culture, drug treatment and cell viability assays. HT29 human colorectal carcinoma cells, 786-0 human renal adenocarcinoma cells and Hep3B human hepatocellular carcinoma cells were obtained from ATCC and maintained in culture according to their recommendations. […] After the treatment period viability of the cells was determined with the MTT cell viability assay and dose response curves were generated using the calculated values of the percentage viable cells relative to the vehicle control.

[7] = test system: Hep3B human hepatocellular carcinoma cells; experiment: MTT cell viability assay, 3 days; assay type: cell-based; settings: normoxic conditions, 1% DMSO
Experimental: as §1

[8] = test system: HT29 human colorectal carcinoma cells; experiment: MTT cell viability assay, 3 days; assay type: cell-based; settings: normoxic conditions, 1% DMSO
Experimental: as §1

[9] = test system: HT29 human colorectal carcinoma cells; experiment: Cell viability by plating efficiency (colony formation after replating); assay type: cell-based; settings: 40 μM, 48 h, diluted 10,000 fold and replated, colonies stained eight days later
Experimental: FIG. 6 depicts the plating efficiency of HT29 human colorectal carcinoma cells after treatment with DMSO, 40μ M3n and 40μ M3N-PEG-2NI. HT29 cells were treated for 48 h with 40 μM M3N, 40 μM M3N-PEG-2NI or the DMSO vehicle. At the end of the treatment period, the cells were diluted 10,000 fold and replated. Eight days later colonies were stained with methylene blue.
For the further assessment of cell viability by plating efficiency, cells (2×10^6 cells/100 mm dish) from the human colorectal carcinoma cell line HT29 were treated for 48 hours with 40 μM M3N, 40 μM M3N-PEG-2NI or the DMSO vehicle. At the end of the treatment period, the cells from each dish were released by trypsinization, diluted 10,000 fold and replated into new 100 mm dishes. Eight days later colonies were stained with 0.25% methylene blue in 50% ethanol

[10] = Homo sapiens, hypoxic (1.0% O2), then 5 days normoxic growth, read-out: IC50 Hypoxic (H)
[11] = Homo sapiens, normoxic (21% O2), then 5 days growth, read-out: IC50 Normoxic (N)
[12] = hypoxic (1.0% O2), then 5 days normoxic growth, read-out: IC50 Hypoxic (H)

Compound	IC50 [1] [µM]	Increment (solubility) [2] [fold]	solubility at 1 h [2] [µg/mL]	Ratio IC50 (N)/IC50 (H) [3]	further results
COc1ccc(C[C@H](C)[C@H](C)Cc2ccc(OC)c(OCCn3cnc([N+](=O)[O-])c3)c2)cc1OC (racemic) [Compound 7a, (±)-(2R,3S)-4-(3,4-Dimethoxyphenyl)-1-[4-methoxy-3-[2-(4-nitro-1H-imidazol-1-yl)ethoxy]phenyl]-2,3-dimethylbutane]	15.8 ± 1.6	10.5	1.76 (≈ 3.64 µM)		
COc1ccc(C[C@H](C)[C@H](C)Cc2ccc(OC)c(OCCn3ccnc3[N+](=O)[O-])c2)cc1OC (racemic) [Compound 7b, (±)-(2R,3S)-4-(3,4-Dimethoxyphenyl)-1-[4-methoxy-3-[2-(2-nitro-1H-imidazol-1-yl)ethoxy]phenyl]-2,3-dimethylbutane]	21.8 ± 4.5	8.1	1.64 (≈ 3.39 µM)		
COc1ccc(C[C@H](C)[C@H](C)Cc2ccc(OC)c(OCCOCCOCCOCCn3cnc([N+](=O)[O-])c3)c2)cc1OC (racemic) [Compound 7c, (±)-(2R,3S)-4-(3,4-Dimethoxyphenyl)-1-[4-methoxy-3-[12-(4-nitro-1H-imidazol-1-yl)-1,4,7,10-tetraoxadodecanyl]phenyl]-2,3-dimethylbutane]	13 ± 5.1		18.5 (≈ 30.1 µM)	1.62	IC50 [3, 10]: 64.3 ± 15.1 µM; IC50 [3, 11]: 104 ± 17.6 µM
COc1ccc(C[C@H](C)[C@H](C)Cc2ccc(OCCn3cnc([N+](=O)[O-])c3)c(OC)c2)cc1OC (racemic) [Compound 10a, (±)-(2R,3S)-4-(3,4-Dimethoxyphenyl)-1-[3-methoxy-4-[2-(4-nitro-1H-imidazol-1-yl)ethoxy]phenyl]-2,3-dimethylbutane]	18.7 ± 4.1	6.5	1.63 (≈ 3.37 µM)		
COc1ccc(C[C@H](C)[C@H](C)Cc2ccc(OCCn3ccnc3[N+](=O)[O-])c(OC)c2)cc1OC (racemic) [Compound 10b, (±)-(2R,3S)-4-(3,4-Dimethoxyphenyl)-1-[3-methoxy-4-[2-(2-nitro-1H-imidazol-1-yl)ethoxy]phenyl]-2,3-dimethylbutane]	24.8 ± 8.7	11.2	1.7 (≈ 3.52 µM)		
COc1ccc(C[C@H](C)[C@H](C)Cc2ccc(OCCOCCOCCOCCn3cnc([N+](=O)[O-])c3)c(OC)c2)cc1OC (racemic) [Compound 10c, (±)-(2R,3S)-4-(3,4-Dimethoxyphenyl)-1-[3-methoxy-4-[12-(4-nitro-1H-imidazol-1-yl)-1,4,7,10-tetraoxadodecanyl]phenyl]-2,3-dimethylbutane]	12.5 ± 4.1		10.5 (≈ 17.1 µM)	2.69	IC50 [3, 10]: 52.1 ± 3.8 µM; IC50 [3, 11]: 140 ± 33.5 µM
COc1ccc(C[C@H](C)[C@H](C)Cc2ccc(OCCOCCOCCOCCn3ccnc3[N+](=O)[O-])c(OC)c2)cc1OC (racemic) [Compound 10d, (±)-(2R,3S)-4-(3,4-Dimethoxyphenyl)-1-[3-methoxy-4-[12-(2-nitro-1H-imidazol-1-yl)-1,4,7,10-tetraoxadodecanyl]phenyl]-2,3-dimethylbutane]	13.4 ± 3.4		19.1 (≈ 31.1 µM)	2.42	IC50 [3, 10]: 49.1 ± 4.9 µM; IC50 [3, 11]: 119 ± 42.8 µM
COc1ccc(CC(C)C(C)Cc2ccc(OC)c(OC)c2)cc1O (stereo not drawn) [Compound 3, trimethyl NDGA, reference compound]				1.58	IC50 [3, 12]: 99 ± 0.6 µM
COc1ccc(CC(C)C(C)Cc2ccc(OC)c(OC)c2)cc1O (stereo not drawn) [Compound 8, trimethyl NDGA, reference compound]				1.28	IC50 [3, 12]: 87.6 ± 8.7 µM
Cl.O=[N+]([O-])c1nccn1CC(O)CN1CCCCC1 (stereo not drawn) [Hydroxyprobe-1]					Protein adducts in tumor sections by immunofluorescence [4]: Protein-adducts were also found; Protein adducts by western blot (PAb2627 antibody) [5]: showed evidence of protein adducts
tri-O-methyl NDGA [Compound M3N, reference compound]					IC50 [6]: 36 to 64 µM; IC50 [7]: 15 to 30 µM; IC50 [8]: > 80 µM; Protein adducts in tumor sections by immunofluorescence [4]: little evidence of adduct formation; Protein adducts by western blot (PAb2627 antibody) [5]: No protein adducts were detected; Ability of HT29 cells to replicate after treatment (plating efficiency) [9]: able to replicate after treatment
